Measurements reported in PubChem BioAssay AID1919015 (Molecular Pharmacology Branch, DTP, NCI, 2023).
pIC50: −log10 of the molar value.

Test system: OVCAR-5 complex spheroids with HUVEC/MSC, viability, % test/control
Assay: Anticancer human tumor OVCAR-5 cell line growth inhibition [AhR];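 also: spheroids exposed to compounds for 7 days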;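 as to viability, T/C: 100% = DMSO vehicle control wells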
Conditions: for pIC50: curve of first compound; for viability, T/C: stronger effect = lower value
Excerpt: Multicellular complex tumor spheroid response to aryl hydrocarbon receptor antagonists in combination with a variety of drugs and investigational agents in selected tumor cell lines
The current study was undertaken to assess response to aryl hydrocarbon receptor antagonists in combination with standard-of-care drugs and investigational agents in solid tumor complex spheroid models. Complex spheroids include a stromal component modeled by human endothelial cells (HUVEC) and fibroblasts modeled by human mesenchymal stem cells (MSCs). The concentration ranges selected for each drug and investigational agent were based upon clinically achievable concentrations if the clinical Cmax of the agent was known.
Compounds. The drugs and investigational agents: BAY 2416964 (NSC825713), GNF351 (NSC835774), CH-223191 (NSC835775), CPI-455 (NSC825282), aza-TdCyd (NSC777586), decitabine (NSC127716), belinostat (NSC758774), entinostat (NSC756642), pevonedistat (NSC761192), tazemetostat (NSC777109), talazoparib (NSC765396), olaparib (NSC753686), selinexor (NSC780203), nedisertib (M3814, NSC802822), bortezomib (NSC756655), venetoclax (NSC766270), doxorubicin (NSC123127), elimusertib (BAY189344, NSC800525), ceralasertib (AZD6738, NSC777638), TAK-243 (NSC785004), alisertib (NSC759677), etoposide (NSC141540), topotecan (NSC609699), eribulin (NSC707389), gemcitabine (NSC613327), carboplatin (NSC241240), cisplatin (NSC119875), and SN-38 (NSC673596) were obtained from the National Cancer Institute (NCI) Developmental Therapeutics Program Chemical Repository (32). The FDA-approved anticancer drug set is available from the Developmental Therapeutics Program at https://dtp.cancer.gov/organization/dscb/obtaining/available plates.htm. […] The stock solutions were prepared in dimethyl sulfoxide (DMSO, Sigma-Aldrich, St. Louis, MO, cat. D2650), except for the platinum compounds which were prepared in saline (Quality Biological, Gaithersburg, MD, cat. 114-055-101), at 800-fold the tested concentration and stored at -70 degrees C prior to their use. All drugs and investigational agents were tested over a range starting from a high concentration at or near the clinical Cmax and decreasing in half-log increments. If the clinical Cmax for an agent had not been determined, the highest concentration tested was 10 microM (Table 1).
Cell Culture. All cells were maintained in an incubator at 37 degrees C and 5% CO2 with 95% humidity. The PDC lines were cultured according to standard operating procedures established by the NCI PDMR (https://pdmr.cancer.gov). Briefly, all PDCs were thawed and cultured in Matrigel-coated flasks prepared with a working solution of 1X Ham's F-12 nutrient mix, without supplementation (Invitrogen, Waltham, MA, cat. 11765054), 100 U/mL penicillin-streptomycin (Invitrogen, cat. 15140122), and 2.5% Matrigel (Corning Inc., Corning, NY, cat. 354248) for the first three passages. All PDCs were cultured in complete DMEM/F-12 media containing advanced DMEM/F-12 (Invitrogen, cat. 12634028), 4.9% defined fetal bovine serum, heat inactivated (HyClone Laboratories Inc., Logan, UT, cat. SH30070.03HI), 389 ng/mL hydrocortisone (Sigma-Aldrich, cat. H4001), 9.7 ng/mL human EGF recombinant protein (Invitrogen, cat. PHG0313), 23.4 microg/mL adenine (Sigma-Aldrich, cat. A2786), 97.3 U/mL penicillin-streptomycin (Invitrogen, cat. 15140122), 1.9 mM L-glutamine (Invitrogen, cat. 25030081), and 9.7 microM Y-27632 dihydrochloride (Tocris Bioscience, Bristol, United Kingdom, cat. 1254). The PDCs were cultured in complete DMEM/F12 media without 10 microM Y-27632 dihydrochloride for at least two passages prior to the screen. The established cell lines NCI-H1341 and […] were cultured in DMEM/F-12, HEPES (Invitrogen, cat. 11330032), 5% defined fetal bovine serum (HyClone Laboratories Inc., cat. SH30070.03), ITS premix universal culture supplement [insulin (5 microg/mL), transferrin (5 microg/mL), and selenious acid (5 ng/mL)] […]

[1] = second compound 0.1 µM, first compound 0.0316 µM
[2] = second compound 0.1 µM, first compound 0.1 µM
[3] = second compound 0.1 µM, first compound 0.316 µM
[4] = second compound 0.1 µM, first compound 1 µM
[5] = second compound 0.1 µM, first compound 3.16 µM
[6] = second compound 0.1 µM, first compound 10 µM
[7] = second compound 0.316 µM, first compound 0.0316 µM
[8] = second compound 0.316 µM, first compound 0.1 µM
[9] = second compound 0.316 µM, first compound 0.316 µM
[10] = second compound 0.316 µM, first compound 1 µM
[11] = second compound 0.316 µM, first compound 3.16 µM
[12] = second compound 0.316 µM, first compound 10 µM
[13] = second compound 1 µM, first compound 0.0316 µM
[14] = second compound 1 µM, first compound 0.1 µM
[15] = second compound 1 µM, first compound 0.316 µM
[16] = second compound 1 µM, first compound 1 µM
[17] = second compound 1 µM, first compound 3.16 µM
[18] = second compound 1 µM, first compound 10 µM
[19] = second compound 3.16 µM, first compound 0.0316 µM
[20] = second compound 3.16 µM, first compound 0.1 µM
[21] = second compound 3.16 µM, first compound 0.316 µM
[22] = second compound 3.16 µM, first compound 1 µM
[23] = second compound 3.16 µM, first compound 3.16 µM
[24] = second compound 3.16 µM, first compound 10 µM
[25] = second compound 10 µM, first compound 0.0316 µM
[26] = second compound 10 µM, first compound 0.1 µM
[27] = second compound 10 µM, first compound 0.316 µM
[28] = second compound 10 µM, first compound 1 µM
[29] = second compound 10 µM, first compound 3.16 µM
[30] = second compound 10 µM, first compound 10 µM

Compound: COc1ccc([C@@H](O)c2cc(-c3ncnc4cc(N5CCOCC5)ccc34)c(F)cc2Cl)nn1 + Cc1cncc(-c2nc(NCCc3c[nH]c4ccccc34)c3ncn(C(C)C)c3n2)c1
- pIC50 (second compound 0.1 µM): 5.49
- pIC50 (second compound 0.316 µM): 5.45
- pIC50 (second compound 1 µM): 5.56
- pIC50 (second compound 3.16 µM): 5.78
- pIC50 (second compound 10 µM): > 7.50
- viability, T/C [1]: 104%
- viability, T/C [2]: 104%
- viability, T/C [3]: 100%
- viability, T/C [4]: 80.9%
- viability, T/C [5]: 50.9%
- viability, T/C [6]: 28.8%
- viability, T/C [7]: 104%
- viability, T/C [8]: 103%
- viability, T/C [9]: 94%
- viability, T/C [10]: 80%
- viability, T/C [11]: 52%
- viability, T/C [12]: 29.1%
- viability, T/C [13]: 98.7%
- viability, T/C [14]: 101%
- viability, T/C [15]: 95%
- viability, T/C [16]: 74.9%
- viability, T/C [17]: 47.1%
- viability, T/C [18]: 28.8%
- viability, T/C [19]: 83.5%
- viability, T/C [20]: 83.3%
- viability, T/C [21]: 79.8%
- viability, T/C [22]: 59.9%
- viability, T/C [23]: 36.5%
- viability, T/C [24]: 20%
- viability, T/C [25]: 14.2%
- viability, T/C [26]: 13.6%
- viability, T/C [27]: 12.2%
- viability, T/C [28]: 7.42%
- viability, T/C [29]: 4.87%
- viability, T/C [30]: 3.46%

Compound: Cn1ncnc1C1c2n[nH]c(=O)c3cc(F)cc(c23)NC1c1ccc(F)cc1 (stereo not given) + CC(CO)NC(=O)c1cc(-c2ccc(Cl)cc2)nn(-c2cnn(C)c2)c1=O
- pIC50 (second compound 0.1 µM): < 7.00
- pIC50 (second compound 0.316 µM): < 7.00
- pIC50 (second compound 1 µM): < 7.00
- pIC50 (second compound 3.16 µM): < 7.00
- pIC50 (second compound 10 µM): < 7.00
- viability, T/C (second compound 0.1 µM, first compound 0.000316 µM): 104%
- viability, T/C (second compound 0.1 µM, first compound 0.001 µM): 105%
- viability, T/C (second compound 0.1 µM, first compound 0.00316 µM): 105%
- viability, T/C (second compound 0.1 µM, first compound 0.01 µM): 105%
- viability, T/C [1]: 104%
- viability, T/C [2]: 101%
- viability, T/C (second compound 0.316 µM, first compound 0.000316 µM): 104%
- viability, T/C (second compound 0.316 µM, first compound 0.001 µM): 110%
- viability, T/C (second compound 0.316 µM, first compound 0.00316 µM): 106%
- viability, T/C (second compound 0.316 µM, first compound 0.01 µM): 107%
- viability, T/C [7]: 105%
- viability, T/C [8]: 99.7%
- viability, T/C (second compound 1 µM, first compound 0.000316 µM): 112%
- viability, T/C (second compound 1 µM, first compound 0.001 µM): 114%
- viability, T/C (second compound 1 µM, first compound 0.00316 µM): 112%
- viability, T/C (second compound 1 µM, first compound 0.01 µM): 108%
- viability, T/C [13]: 112%
- viability, T/C [14]: 108%
- viability, T/C (second compound 3.16 µM, first compound 0.000316 µM): 106%
- viability, T/C (second compound 3.16 µM, first compound 0.001 µM): 103%
- viability, T/C (second compound 3.16 µM, first compound 0.00316 µM): 103%
- viability, T/C (second compound 3.16 µM, first compound 0.01 µM): 96.2%
- viability, T/C [19]: 101%
- viability, T/C [20]: 100%
- viability, T/C (second compound 10 µM, first compound 0.000316 µM): 97.6%
- viability, T/C (second compound 10 µM, first compound 0.001 µM): 97.8%
- viability, T/C (second compound 10 µM, first compound 0.00316 µM): 99.5%
- viability, T/C (second compound 10 µM, first compound 0.01 µM): 95.5%
- viability, T/C [25]: 93.5%
- viability, T/C [26]: 94.6%

Compound: CC(C)c1c(-c2ccccc2)nc2c(C#N)c[nH]n2c1=O + Cc1cncc(-c2nc(NCCc3c[nH]c4ccccc34)c3ncn(C(C)C)c3n2)c1
- pIC50 (second compound 0.1 µM): < 5.00
- pIC50 (second compound 0.316 µM): < 5.00
- pIC50 (second compound 1 µM): < 5.00
- pIC50 (second compound 3.16 µM): < 5.00
- pIC50 (second compound 10 µM): > 7.50
- viability, T/C [1]: 100%
- viability, T/C [2]: 99.5%
- viability, T/C [3]: 100%
- viability, T/C [4]: 100%
- viability, T/C [5]: 96.4%
- viability, T/C [6]: 106%
- viability, T/C [7]: 101%
- viability, T/C [8]: 103%
- viability, T/C [9]: 98.5%
- viability, T/C [10]: 102%
- viability, T/C [11]: 95.2%
- viability, T/C [12]: 106%
- viability, T/C [13]: 96.8%
- viability, T/C [14]: 99.1%
- viability, T/C [15]: 100%
- viability, T/C [16]: 94.1%
- viability, T/C [17]: 94.8%
- viability, T/C [18]: 103%
- viability, T/C [19]: 81.5%
- viability, T/C [20]: 84.1%
- viability, T/C [21]: 86.1%
- viability, T/C [22]: 83.6%
- viability, T/C [23]: 90.1%
- viability, T/C [24]: 88.7%
- viability, T/C [25]: 14.2%
- viability, T/C [26]: 14.2%
- viability, T/C [27]: 17.8%
- viability, T/C [28]: 16.3%
- viability, T/C [29]: 16%
- viability, T/C [30]: 25.1%
